Measured values reported in ChEMBL document CHEMBL1201862, “PubChem BioAssay data set” (2004).
Where a name gives a salt, the structure may show the parent alone. Active and inactive are the calls of the source.

Experiments:
[1] = biological target: T1, RNA-binding protein pos-1 (Caenorhabditis elegans, UniProt G5EF15); assay: disruptors of C. elegans POS-1 RNA interaction – biochemical, fluorescence polarization, dose response (AID 1964);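 note: purified POS-1 fused to maltose binding protein made in E. coli; potency of compounds blocking POS-1 binding to fluorescent RNA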
T1 sequence (G5EF15 whole entry): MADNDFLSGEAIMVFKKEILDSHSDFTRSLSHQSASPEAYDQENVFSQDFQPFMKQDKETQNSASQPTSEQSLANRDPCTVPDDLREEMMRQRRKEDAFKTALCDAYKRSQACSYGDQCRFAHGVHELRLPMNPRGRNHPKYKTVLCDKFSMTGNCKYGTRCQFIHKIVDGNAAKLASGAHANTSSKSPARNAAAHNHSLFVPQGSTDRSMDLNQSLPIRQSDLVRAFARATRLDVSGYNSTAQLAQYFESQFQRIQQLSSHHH

[2] = biological target: T2, Zinc finger protein mex-5 (Caenorhabditis elegans, UniProt Q9XUB2); assay: potency of MEX-5 RNA-binding blockers – biochemical, C. elegans, fluorescence polarization, dose response (AID 1960)
T2 sequence (Q9XUB2 whole entry): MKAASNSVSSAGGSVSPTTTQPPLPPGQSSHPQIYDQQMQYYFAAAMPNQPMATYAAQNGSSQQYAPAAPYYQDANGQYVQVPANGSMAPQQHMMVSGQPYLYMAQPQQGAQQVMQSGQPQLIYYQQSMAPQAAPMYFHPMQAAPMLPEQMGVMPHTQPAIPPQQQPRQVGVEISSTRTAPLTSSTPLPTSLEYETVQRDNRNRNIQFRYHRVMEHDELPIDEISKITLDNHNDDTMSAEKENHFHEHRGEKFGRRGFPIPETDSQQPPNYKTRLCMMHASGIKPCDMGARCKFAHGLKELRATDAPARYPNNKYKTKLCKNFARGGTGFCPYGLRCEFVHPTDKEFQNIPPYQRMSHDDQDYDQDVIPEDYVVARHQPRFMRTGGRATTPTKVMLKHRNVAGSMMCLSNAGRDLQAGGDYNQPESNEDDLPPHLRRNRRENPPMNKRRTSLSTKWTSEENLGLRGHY

cells = type: functional
Cytochrome P450 2C9 = Cytochrome P450 2C9 (Homo sapiens, UniProt P11712)
Chain of Cytochrome P450 2C9 (P11712 whole entry): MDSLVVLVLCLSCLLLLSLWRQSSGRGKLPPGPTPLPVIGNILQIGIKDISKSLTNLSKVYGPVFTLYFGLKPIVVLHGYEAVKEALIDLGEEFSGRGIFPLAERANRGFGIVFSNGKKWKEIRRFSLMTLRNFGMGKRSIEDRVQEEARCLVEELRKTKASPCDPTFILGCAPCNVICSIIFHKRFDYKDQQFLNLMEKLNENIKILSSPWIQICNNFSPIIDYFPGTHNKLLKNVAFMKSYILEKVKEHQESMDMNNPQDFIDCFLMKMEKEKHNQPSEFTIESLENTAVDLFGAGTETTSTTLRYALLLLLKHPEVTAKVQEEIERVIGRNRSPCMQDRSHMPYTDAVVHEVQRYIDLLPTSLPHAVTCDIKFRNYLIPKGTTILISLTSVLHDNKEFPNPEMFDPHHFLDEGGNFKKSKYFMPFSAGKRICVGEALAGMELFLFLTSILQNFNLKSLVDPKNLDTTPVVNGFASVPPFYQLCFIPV

[3] = luciferase reporter signal suppression in cells – H4 neuroglioma cells, luminescence, dose response (AID 1990); type: functional, cell-based
Cytochrome P450 3A4 = Cytochrome P450 3A4 (Homo sapiens, UniProt P08684);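 note: CYP3A4 tested as one member of a cytochrome P450 panel screen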
Chain of Cytochrome P450 3A4 (P08684 whole entry): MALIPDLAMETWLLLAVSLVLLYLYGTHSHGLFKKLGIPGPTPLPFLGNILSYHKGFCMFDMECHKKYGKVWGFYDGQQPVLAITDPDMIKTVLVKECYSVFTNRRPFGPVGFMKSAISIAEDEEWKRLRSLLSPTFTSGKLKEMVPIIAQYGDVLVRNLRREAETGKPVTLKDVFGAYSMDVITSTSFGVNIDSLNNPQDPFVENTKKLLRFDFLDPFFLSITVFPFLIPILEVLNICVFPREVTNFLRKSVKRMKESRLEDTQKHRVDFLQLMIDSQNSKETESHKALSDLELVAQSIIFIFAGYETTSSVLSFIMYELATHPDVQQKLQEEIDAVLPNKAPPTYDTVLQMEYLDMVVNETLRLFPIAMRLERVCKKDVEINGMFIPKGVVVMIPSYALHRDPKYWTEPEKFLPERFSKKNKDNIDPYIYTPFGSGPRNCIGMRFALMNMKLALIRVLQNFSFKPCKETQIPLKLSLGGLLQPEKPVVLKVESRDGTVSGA

[4] = alpha-synuclein stem-loop luciferase translation blockers – H4 neuroglioma cells, luminescence, confirmation (AID 1988); type: functional, cell-based
[5] = Luminescence Cell-Based Dose Response HTS to Identify Inhibitors of 5'UTR Stem-Loop Driven Prion Protein mRNA Translation in H4 Neuroglioblastoma Cells. [Related pubchem assays: 1827 (Project Summary), 1813 (Primary HTS)]; type: functional
[6] = biological target: T3, Corticotropin-releasing factor receptor 2/Corticotropin-releasing factor-binding protein (Homo sapiens, UniProt P24387+Q13324); assay: activators of CRF receptor 2 with binding protein – uHTS hits, confirmation (AID 602473); type: functional; conditions: read-out: EC50_Mean
T3 sequence (Q13324 whole entry): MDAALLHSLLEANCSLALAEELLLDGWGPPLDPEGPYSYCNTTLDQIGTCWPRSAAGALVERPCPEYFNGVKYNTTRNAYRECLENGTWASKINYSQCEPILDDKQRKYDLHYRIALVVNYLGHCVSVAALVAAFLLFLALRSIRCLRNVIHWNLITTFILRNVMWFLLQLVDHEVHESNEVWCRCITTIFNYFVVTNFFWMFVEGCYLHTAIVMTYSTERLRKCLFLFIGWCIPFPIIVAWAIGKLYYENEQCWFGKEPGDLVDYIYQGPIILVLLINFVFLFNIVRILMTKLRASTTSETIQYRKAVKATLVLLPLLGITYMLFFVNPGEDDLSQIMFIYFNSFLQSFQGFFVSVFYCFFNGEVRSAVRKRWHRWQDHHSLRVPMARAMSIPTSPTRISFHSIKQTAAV
T3 sequence (P24387 whole entry): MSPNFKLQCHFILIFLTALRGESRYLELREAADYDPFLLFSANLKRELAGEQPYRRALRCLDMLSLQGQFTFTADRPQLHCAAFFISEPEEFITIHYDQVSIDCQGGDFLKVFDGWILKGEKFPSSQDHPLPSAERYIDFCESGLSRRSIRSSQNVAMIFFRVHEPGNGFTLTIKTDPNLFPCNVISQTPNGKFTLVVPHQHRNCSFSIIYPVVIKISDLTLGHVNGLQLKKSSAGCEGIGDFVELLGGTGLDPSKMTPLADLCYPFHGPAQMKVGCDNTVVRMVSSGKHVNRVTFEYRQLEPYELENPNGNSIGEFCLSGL

[7] = biological target: T3, Corticotropin-releasing factor receptor 2/Corticotropin-releasing factor-binding protein; assay: Dose Response confirmation of uHTS hits for small molecule antagonists of the CRF-binding protein and CRF-R2 receptor complex.; type: functional; conditions: read-out: IC50_Mean
Cytochrome P450 2C19 = Cytochrome P450 2C19 (Homo sapiens, UniProt P33261); assay: Cytochrome panel assay with activity outcomes. Panel member name: p450-cyp2c19 Compounds with AC50 equal or less than 10 uM are considered active; type: functional; conditions: read-out: AC50
Chain of Cytochrome P450 2C19 (P33261 whole entry): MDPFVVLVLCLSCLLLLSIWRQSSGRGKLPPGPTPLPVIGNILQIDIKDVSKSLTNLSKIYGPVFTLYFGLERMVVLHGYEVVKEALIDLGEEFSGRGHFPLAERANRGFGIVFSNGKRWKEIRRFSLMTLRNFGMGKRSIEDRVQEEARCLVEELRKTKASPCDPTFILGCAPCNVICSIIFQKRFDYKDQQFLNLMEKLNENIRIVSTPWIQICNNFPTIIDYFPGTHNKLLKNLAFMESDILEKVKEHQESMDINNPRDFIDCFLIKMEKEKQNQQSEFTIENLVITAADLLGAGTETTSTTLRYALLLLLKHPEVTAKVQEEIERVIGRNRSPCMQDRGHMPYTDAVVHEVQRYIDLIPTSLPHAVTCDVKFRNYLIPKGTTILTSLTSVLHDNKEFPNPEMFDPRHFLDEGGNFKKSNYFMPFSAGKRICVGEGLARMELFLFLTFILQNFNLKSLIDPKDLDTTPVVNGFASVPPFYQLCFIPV

[8] = biological target: T4, Heat shock factor protein 1 (Mus musculus, UniProt P38532); assay: decrease of HSF1-responsive luciferase luminescence – cell-based, NIH3T3, dose retest, confirmation (AID 2382); type: functional;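 note: NIH3T3 fibroblasts with HSF1-driven luciferase reporter stressed by proteasome inhibitor MG132; luminescence from HSF1-driven luciferase expression after 8 hours of MG132 stress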
T4 sequence (P38532 whole entry): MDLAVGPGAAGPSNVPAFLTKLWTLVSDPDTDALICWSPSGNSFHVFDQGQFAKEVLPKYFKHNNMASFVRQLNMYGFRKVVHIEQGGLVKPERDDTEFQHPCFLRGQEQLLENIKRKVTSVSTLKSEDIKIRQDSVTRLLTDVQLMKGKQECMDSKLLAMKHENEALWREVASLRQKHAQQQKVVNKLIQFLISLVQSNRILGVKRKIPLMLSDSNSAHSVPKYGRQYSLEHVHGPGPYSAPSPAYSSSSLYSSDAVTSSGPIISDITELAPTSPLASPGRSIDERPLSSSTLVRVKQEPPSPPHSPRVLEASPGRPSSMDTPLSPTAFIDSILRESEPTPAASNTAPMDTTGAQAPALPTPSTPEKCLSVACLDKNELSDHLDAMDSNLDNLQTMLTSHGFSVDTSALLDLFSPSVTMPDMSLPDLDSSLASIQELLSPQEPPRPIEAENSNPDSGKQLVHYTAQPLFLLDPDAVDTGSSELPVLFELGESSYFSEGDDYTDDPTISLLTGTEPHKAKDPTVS

Cytochrome P450 2D6 = Cytochrome P450 2D6 (Homo sapiens, UniProt P10635);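 note: CYP2D6 member of a cytochrome P450 panel assay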
Chain of Cytochrome P450 2D6 (P10635 whole entry): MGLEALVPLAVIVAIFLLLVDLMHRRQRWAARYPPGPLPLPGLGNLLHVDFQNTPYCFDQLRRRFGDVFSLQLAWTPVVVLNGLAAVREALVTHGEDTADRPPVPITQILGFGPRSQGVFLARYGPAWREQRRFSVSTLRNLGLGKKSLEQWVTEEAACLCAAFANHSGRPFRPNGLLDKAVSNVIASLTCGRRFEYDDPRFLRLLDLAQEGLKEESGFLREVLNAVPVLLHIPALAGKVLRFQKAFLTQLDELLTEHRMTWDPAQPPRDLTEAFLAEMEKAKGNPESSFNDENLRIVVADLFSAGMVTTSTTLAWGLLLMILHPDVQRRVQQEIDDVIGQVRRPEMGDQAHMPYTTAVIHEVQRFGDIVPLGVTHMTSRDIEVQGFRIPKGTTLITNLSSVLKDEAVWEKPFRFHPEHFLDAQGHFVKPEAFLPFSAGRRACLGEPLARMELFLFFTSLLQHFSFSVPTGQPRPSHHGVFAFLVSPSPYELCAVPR

Cytochrome P450 1A2 = biological target: T5, Cytochrome P450 1A2 (Homo sapiens, UniProt P05177);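 note: PubChem cytochrome P450 panel assay, CYP1A2 panel member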
T5 sequence (P05177 whole entry): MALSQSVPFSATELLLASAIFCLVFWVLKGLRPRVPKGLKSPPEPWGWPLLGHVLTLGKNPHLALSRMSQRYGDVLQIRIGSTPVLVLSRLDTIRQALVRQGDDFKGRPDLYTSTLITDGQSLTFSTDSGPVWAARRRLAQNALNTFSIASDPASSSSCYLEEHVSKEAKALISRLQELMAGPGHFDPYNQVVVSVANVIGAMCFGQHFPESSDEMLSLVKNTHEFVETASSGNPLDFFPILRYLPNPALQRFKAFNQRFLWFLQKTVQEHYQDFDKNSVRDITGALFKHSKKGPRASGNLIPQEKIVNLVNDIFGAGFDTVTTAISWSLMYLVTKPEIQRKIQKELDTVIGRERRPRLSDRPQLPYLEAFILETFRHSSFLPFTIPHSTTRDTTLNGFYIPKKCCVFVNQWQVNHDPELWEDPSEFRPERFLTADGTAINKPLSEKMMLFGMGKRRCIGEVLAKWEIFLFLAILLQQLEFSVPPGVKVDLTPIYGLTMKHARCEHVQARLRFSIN

[9] = NIH3T3 cell viability loss – ATP luminescence, mouse fibroblasts, counter-screen, dose response (AID 2010); type: functional, cell-based;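 note: cells exposed to compound for about 90 hours before reading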
[10] = Trypanosoma cruzi growth suppression in host cells – NIH3T3 host cells, beta-gal luminescence, confirmation (AID 2044); type: functional, cell-based;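 note: intracellular parasites grown in NIH/3T3 mouse fibroblasts as host cells; luminescent beta-galactosidase reporter signal from transgenic T. cruzi replicating inside host cells; inhibitors lower the luminescence signal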

## Cc1ccccc1C1=N/C(=C/c2cccs2)C(=O)O1
[1]
  EC50: > 300 µM (not active)
[2]
  EC50: 39.1 µM (active)

## COC(=O)C1=C(N)OC2=C(C(=O)CC(C)(C)C2)C1c1cccnc1 (stereo not given)
cells
  IC50: > 50 µM (active)

## COc1ccc(NC(=O)c2ccc(C(=O)c3cc(OC)ccc3OC)cc2)cc1
Cytochrome P450 2C9
  AC50: 22.4 µM (inconclusive)

## COC(=O)c1nn(-c2ccccc2)c(-c2ccccc2)c1C(=O)c1ccccc1
[3]
  EC50: > 120 µM (not active)
Cytochrome P450 3A4
  AC50: 14.1 µM (inconclusive)
[4]
  EC50: > 120 µM (not active)
[5]
  EC50: > 120 µM (not active)
Cytochrome P450 2C9
  AC50: 15.8 µM (inconclusive)

## Cc1ccc(Sc2c(C=O)c3ccccc3n2C)cc1
[6]
  EC50: > 53 µM (inactive)
[7]
  IC50: > 47.1 µM (inactive)

## Fc1ccc([C@H]2CCNC[C@H]2COc2ccc3c(c2)OCO3)cc1
Cytochrome P450 2C9
  AC50: 2 µM (inconclusive)

## Cc1ccc(O)c(-c2cc(C(F)(F)C(F)F)nc(-c3ccccc3)n2)c1
Cytochrome P450 3A4
  AC50: 8.91 µM (inconclusive)
Cytochrome P450 2C19
  AC50: 14.1 µM (inconclusive)
Cytochrome P450 2C9
  AC50: 7.08 µM (inconclusive)

## N#CC1=C(N)Oc2cc(N)ccc2C1c1ccccc1Cl (stereo not given)
[8]
  EC50: > 195 µM (not active)

## CSc1ccc(CN(C)Cc2cc(=O)oc3c(C)c(C)ccc23)cc1
[8]
  EC50: > 195 µM (not active)

## O=C(Nc1cccc2ncccc12)c1ccc(-c2ccc(Br)cc2)o1
Cytochrome P450 2D6
  AC50: 12.6 µM (inconclusive)
Cytochrome P450 2C9
  AC50: 0.282 µM (inconclusive)

## C=CCNC(=S)NNC(=O)c1cc(-c2cccnc2)nc2ccccc12
[8]
  EC50: > 195 µM (not active)

## Cc1ccc(NC(=O)/C(=C\c2cccnc2)NC(=O)c2ccco2)cc1
Cytochrome P450 2C19
  AC50: 35.5 µM (inconclusive)
Cytochrome P450 2C9
  AC50: 20 µM (inconclusive)

## CCN(CC)CCN/C=C1\C(=O)NC(=O)N(CCc2ccccc2)C1=O
[1]
  EC50: > 300 µM (not active)
[2]
  EC50: > 300 µM (not active)

## CCN1C(=O)NC(=O)/C(=C\c2cn(CC(=O)O)c3ccccc23)C1=O
[1]
  EC50: > 300 µM (not active)
[2]
  EC50: > 300 µM (not active)

## O=C1c2ccc3c4c(ccc(c24)C(=O)N1c1ccc2ccccc2c1)CC3
[3]
  EC50: 11.6 µM (active)
Cytochrome P450 2C19
  AC50: 2.24 µM (inconclusive)
[4]
  EC50: 119 µM (active)
[5]
  EC50: 36.6 µM (active)
Cytochrome P450 2C9
  AC50: 3.98 µM (inconclusive)

## COC(=O)C1CC(Cl)CN1c1ncc(C(F)(F)F)cc1Cl (stereo not given)
[6]
  EC50: > 53 µM (inactive)
[7]
  IC50: > 47.1 µM (inactive)

## CC(C)CC(=O)Nc1c2c(nn1-c1ccc(F)cc1)C[S+]([O-])C2 (stereo not given)
[8]
  EC50: > 195 µM (not active)

## CCOCCOC(=O)c1ccc(NC(=O)C2COc3ccccc3O2)cc1 (stereo not given)
cells
  IC50: 15.2 µM (active)

## CCn1ncc2c(OCc3ccc(C#N)cc3)cc(C)nc21
[3]
  EC50: 21.5 µM (active)
[4]
  EC50: 61.8 µM (active)
[5]
  EC50: 24.9 µM (active)

## CC(C)NC(=O)N1CCCC2(CCN(C(=O)Oc3ccccc3)CC2)C1
Cytochrome P450 3A4
  AC50: 25.1 µM (inconclusive)
Cytochrome P450 1A2
  AC50: 12.6 µM (inconclusive)
Cytochrome P450 2C9
  AC50: 12.6 µM (inconclusive)

## CC(C)(C)n1nc2c(c1NC(=O)Cc1ccccc1)CS(=O)(=O)C2
[6]
  EC50: > 53 µM (inactive)
[7]
  IC50: > 47.1 µM (inactive)

## NS(=O)(=O)c1ccc(/N=N\c2ncccc2O)cc1
Cytochrome P450 3A4
  AC50: 3.98 µM (inconclusive)
Cytochrome P450 1A2
  AC50: 2 µM (inconclusive)
Cytochrome P450 2C9
  AC50: 6.31 µM (inconclusive)

## O=C(NNc1nc2ccccc2s1)Nc1ccccc1
[8]
  EC50: > 195 µM (not active)

## Cc1cccc2cc(C#N)c(N3CCN(C)CC3)nc12
[6]
  EC50: > 53 µM (inactive)
[7]
  IC50: > 47.1 µM (inactive)

## O=C(CCl)NC(Cc1ccccc1)c1ccccc1 (stereo not given)
[8]
  EC50: 17.1 µM (active)

## Cc1nc2c(sc3nc(N4CCOCC4)c4c(c32)CC(C)(C)OC4)c(-c2ccc(Cl)cc2)c1C(=O)O
[8]
  EC50: > 195 µM (not active)

## Cn1cc(C(=O)c2ccccc2)c2ccccc21
[6]
  EC50: > 53 µM (inactive)
[7]
  IC50: > 47.1 µM (inactive)

## O=C(Nc1ccc(Cl)c(C(F)(F)F)c1)C1CCCN(S(=O)(=O)c2c[nH]cn2)C1 (stereo not given)
Cytochrome P450 2C9
  AC50: 0.501 µM (inconclusive)

## C/C(=N\Nc1cccc2cccnc12)c1ccccn1
[9]
  EC50: > 60 µM (not active)
cells
  IC50: 13.8 µM (active)
[10]
  EC50: 2.51 µM (active)

## Cn1c(=O)c2nc(N/N=C(/C#N)C(N)=O)[nH]c2n(C)c1=O
[1]
  EC50: > 300 µM (not active)
[2]
  EC50: 52.4 µM (active)

## Cc1oc(/N=C/c2ccc(O)cc2O)c(C#N)c1C
[1]
  EC50: > 300 µM (not active)
[2]
  EC50: > 300 µM (not active)

## CCO/C(C)=N/n1c2nc3ccccc3nc2c2c(=O)n(CC(C)C)c(C)nc21
Cytochrome P450 2C9
  AC50: 12.6 µM (inconclusive)

## COc1ccc2c3c1O[C@H]1C[C@@H](O)C=C[C@@]31CCN(C)C2 [GALANTAMINE HYDROBROMIDE]
[3]
  EC50: > 120 µM (not active)
[4]
  EC50: 11.1 µM (active)
[5]
  EC50: > 120 µM (not active)
